Measured values reported in patent US10787476B2, “Glycoamino acid and use thereof” (AJINOMOTO CO., INC., priority 2013, dated 2020).

Legend:
[1] = Heat stability of aqueous Glc-Leu solution (free Leu by HPLC); type: physicochemical; details: aqueous solution 100 mg/dl; for Leu liberated: 90° C.
Experimental: On the other hand, free Leu was not confirmed at 60° C. even after 72 hr, and sufficient heat stability as an amino acid precursor was shown.

[2] = Dissolution rate in stirring water; type: physicochemical; details: for dissolution rate: inside temperature 34° C., n=2
Experimental: Leu and Glc-Leu were each added to stirring water (inside temperature 34° C.) in a hot-water bath at 35° C., and the dissolution rate was measured. The amount of the sample added and the measurement results are as shown below (n=2). As compared to Leu, Glc-Leu was dissolved 46 times faster in equal weight and 17 times faster in equimolar amount.

[3] = tested on: α/β-glucosidase; assay: Glucosidase treatment, amino acid production amount by HPLC; type: in vitro ADME; details: phosphate buffer pH 5.5, 37° C., 30 min later
Experimental: Glc-Phe, Glc-Leu, Glc-Lys, Glc-Glu and Glc-DOPA were each dissolved in phosphate buffer (pH 5.5) at the ratio shown in Table 2, α/β-glucosidase in the amount shown in Table 2 was added, and the mixture was stirred in a hot-water bath at 37° C. The mixture was diluted 2-fold with 1% aqueous phosphoric acid solution, and analyzed by HPLC. […] As for Glc-Leu, about 80% of leucine was liberated 1 hr later; as for Glc-Lys, about 20% of lysine was liberated 1 hr later; as for Glc-Glu, about 40% of glutamic acid was liberated 1 hr later; and as for Glc-DOPA, about 70% of 3,4-dihydroxyphenylalanine was liberated 1 hr later.

[4] = equivalent weight, 300 mg/25 ml water

SMILES | free Leu ([1]; 60° C., after 72 hr) | Leu liberated ([1]; 72 hr) | Leu liberated ([1]; about 6 hr) | dissolution rate [2, 4] | dissolved faster as compared to Leu ([2]; in equal weight) [times] | dissolved faster as compared to Leu ([2]; in equimolar amount) [times] | remaining glycoamino acid [3] | dissolution rate ([2]; equimolar amount to glycoamino acid, 111 mg (0.85 mmol)/25 ml water)
CC(C)C[C@H](NC(=O)OC1O[C@H](CO)[C@@H](O)[C@H](O)[C@H]1O)C(=O)O (stereo partly drawn) [Glc-Leu, N-(α/β-D-glucopyranosyloxycarbonyl)-L-leucine] | not confirmed | liberated almost completely | about 50% | 26 s | 46 | 17 |  | 
O=C(N[C@@H](Cc1ccccc1)C(=O)O)OC1O[C@H](CO)[C@@H](O)[C@H](O)[C@H]1O (stereo partly drawn) [Glc-Phe, N-(α/β-D-glucopyranosyloxycarbonyl)-L-phenylalanine] |  |  |  |  |  |  | almost disappeared | 
CC(C)C[C@H](N)C(=O)O [Leu, L-leucine, reference compound] |  |  |  | (1203 sec) |  |  |  | (450 sec)
